Results: paper PMC11189555, “Aryl amino acetamides prevent Plasmodium falciparum ring development via targeting the lipid-transfer protein PfSTART1” (Nature Communications, 2024)
Like-named read-outs stand apart in the source and are kept apart here.

Test system: PopD-D7 M-833 resistant clone (PfSTART1 N309K)
Assay: Growth inhibition assay (72 h, LDH activity)
Format: cell-based, Plasmodium falciparum
Conditions: for inhibition at 0.0390625 µM / inhibition at 0.078125 µM / inhibition at 0.15625 µM / inhibition at 0.3125 µM / inhibition at 0.625 µM / inhibition at 1.25 µM / inhibition at 2.5 µM / inhibition at 5 µM / inhibition at 10 µM / EC50: Plasmodium falciparum; for (av-uRBC) / (DMSO-uRBC) x100: PopD-D7, conc. 3.04832 nM
Protocol: The drug was then removed, and parasites were allowed to recover. Another cycle of drug treatment (3 μM M-833) was then resumed. The resistant lines were cloned out by limiting dilution (diluting the culture into a 96-well plate to achieve an average of ~0.3 parasites per well), prior to growth inhibition assays and genomic DNA (gDNA) extraction (DNeasy Blood and Tissue kit (Qiagen)[18].
Parasite growth assays with inhibitory compounds were performed as per[11] and are fully described in the Supplementary Information. […]
Growth inhibition assays. Synchronised ring-stage parasites (0.3-0.6% parasitemia, 2% haematocrit) were grown for 72 h in a serial-dilution of the compound under […]
and compound 4. Note that M-833 was first purchased from MolPort (MolPort -002-267-916) then made in-house at WEHI: the differences observed in EC50s across experiments are attributed to the different batches of M -833. For some experiments, 0, 0.25 or 2.5 mM of glucosamine (GlcN) was also added. Experiments were set up in technical duplicates or triplicates. Following a freeze -thaw cycle, lactate dehydrogenase (LDH) activity was assessed as an indicator of parasite growt h 5. 30 μL of parasite culture was incubated for 30 min in the dark with 75 μL Malstat mixture (0.1 M Tris pH 9.0, 20 g/L lactic acid, pH 7.5, 0.2% Triton-X100, 0.5 g/L acetylpyridine adenine dinucleotide (APAD, Sigma), 200 μg/mL nitroblue tetrazolium (NBT; Sigma), 1 μg/mL phenozine ethosulfate (PES; Sigma)). Absorbance was then measured at 650 nm, transformed using the formula below, plotted against the logarithm of the concentrations, and a non-linear regression (log(inhibitor) vs. response, variable slope) was calculated using GraphPad Prism to assess the half-inhibitory […]
Growth inhibition % = (1 − average(sample)− average(uRBC)) ∗ 100 […]
The DMSO samples were also used to assess growth of parasite in the presence of 0.25 and 2.5 mM GlcN (normalised by DMSO in 0 mM GlcN). […]

[1] = M-833 0.0390625 uM, PopD-D7 replicate 1
[2] = M-833 0.0390625 uM, PopD-D7 replicate 3
[3] = M-833 0.078125 uM, PopD-D7 replicate 1
[4] = M-833 0.078125 uM, PopD-D7 replicate 3
[5] = M-833 0.15625 uM, PopD-D7 replicate 1
[6] = M-833 0.15625 uM, PopD-D7 replicate 3
[7] = M-833 0.3125 uM, PopD-D7 replicate 1
[8] = M-833 0.3125 uM, PopD-D7 replicate 3
[9] = M-833 0.625 uM, PopD-D7 replicate 1
[10] = M-833 0.625 uM, PopD-D7 replicate 3
[11] = M-833 1.25 uM, PopD-D7 replicate 1
[12] = M-833 1.25 uM, PopD-D7 replicate 3
[13] = M-833 2.5 uM, PopD-D7 replicate 1
[14] = M-833 2.5 uM, PopD-D7 replicate 3
[15] = M-833 5 uM, PopD-D7 replicate 1
[16] = M-833 5 uM, PopD-D7 replicate 3
[17] = M-833 10 uM, PopD-D7 replicate 1
[18] = M-833 10 uM, PopD-D7 replicate 3

Cc1cc(Cl)c(S(=O)(=O)N2CCCC2)cc1OCC(=O)NC1CCCCC1 [M-833]
Normalised to DMSO [1]: 102.734
Normalised to DMSO [2]: 100.987
Normalised to DMSO [3]: 102.828
Normalised to DMSO [4]: 101.481
Normalised to DMSO [5]: 103.677
Normalised to DMSO [6]: 99.9013
Normalised to DMSO [7]: 100.66
Normalised to DMSO [8]: 100.592
Normalised to DMSO [9]: 98.7744
Normalised to DMSO [10]: 98.815
Normalised to DMSO [11]: 99.0572
Normalised to DMSO [12]: 95.26
Normalised to DMSO [13]: 95.8517
Normalised to DMSO [14]: 89.6313
Normalised to DMSO [15]: 85.4808
Normalised to DMSO [16]: 79.5589
Normalised to DMSO [17]: 58.4224
Normalised to DMSO [18]: 50.0329
inhibition at 0.0390625 µM [1]: -2.73%
inhibition at 0.0390625 µM [2]: -0.987%
inhibition at 0.078125 µM [3]: -2.83%
inhibition at 0.078125 µM [4]: -1.48%
inhibition at 0.15625 µM [5]: -3.68%
inhibition at 0.15625 µM [6]: 0.0987%
inhibition at 0.3125 µM [7]: -0.66%
inhibition at 0.3125 µM [8]: -0.592%
inhibition at 0.625 µM [9]: 1.23%
inhibition at 0.625 µM [10]: 1.18%
inhibition at 1.25 µM [11]: 0.943%
inhibition at 1.25 µM [12]: 4.74%
inhibition at 2.5 µM [13]: 4.15%
inhibition at 2.5 µM [14]: 10.4%
inhibition at 5 µM [15]: 14.5%
inhibition at 5 µM [16]: 20.4%
inhibition at 10 µM [17]: 41.6%
inhibition at 10 µM [18]: 50%
EC50 (read-out: EC50 (95% confidence interval)): 9.95 µM
EC50 (Supplementary Table 1, PopD-D7 (N309K), 72 h, read-out: EC50): 4.88 µM
(av-uRBC) / (DMSO-uRBC) x100 (Biological replicate 1 (2021-10-25)): 106.031
(av-uRBC) / (DMSO-uRBC) x100 (Biological replicate 2 (2021-11-03)): 107.379
(av-uRBC) / (DMSO-uRBC) x100 (Biological replicate 3 (2021-11-11)): 132.053
